Results on one compound are retold here after ChEMBL document CHEMBL1125026, “Synthesis and estrogen receptor binding of novel 11 beta-substituted estra-1,3,5(10)-triene-3,17 beta-diols” (J Med Chem, 1990).

The target in this assay is Estrogen receptor (Rattus norvegicus) (UniProt P06211+Q62986). Briefly: Relative binding affinity for rat uterine estrogen receptor at 25 degree C. Type of assay: protein assay.

The compound `C[C@]12CC[C@@H]3c4ccc(O)cc4CC[C@H]3[C@@H]1C[C@@H](F)[C@@H]2O` returned an RBA of 60.
